Results reported in patent publication US6417386B2, “Cyanohydrazone derivatives” (Syngenta Crop Protection, Inc., priority 1996, dated 2002).

Structure (SMILES)	melting point [°C]
N#C/C(=N\Nc1c(Cl)cc(C(F)(F)F)cc1Cl)c1ccc(C#N)cc1 [Compound 3.4, 4-{1-[(2,6-dichloro-4-trifluoromethylphenyl)hydrazono]-2-nitriloethyl}benzonitrile]	186 to 187
N#C/C(=N\Nc1c(Cl)cc(C(F)(F)F)cc1Cl)c1ccc(Cl)cc1 [Compound 3.16, 4-{1-[(2,6-dichloro-4-trifluoromethylphenyl)hydrazono]-2-nitriloethyl}chlorobenzene]	164 to 165
